Results from patent US20090023810A1, “METHODS OF TRANSLATION AND/OR INFLAMMATION BLOCKADE” (priority 2007, published 2009).

Columns and labels:
[1] = system: HeLa cells; experiment: Stress granule (SG) formation in HeLa cells, immunocytochemistry; type: cell-based; settings: HeLa
Experimental: The immunocytochemical analyses of proteins were performed as described elsewhere (Kim et al., 2005, which is hereby incorporated by reference for all purposes as if fully set forth herein).
HeLa cells that were mock-treated (Mock) or treated with PGA1, 15d-PGJ2, PGE2, SA, arachidonic acid (AA), ciglitazone (Ci), troglitazone (Tro), and rosiglitazone (Rosi) (at indicated concentrations) for 30 minutes.
HeLa cells were treated with lovastatin (100 μM), lipoxin A4 (LXA4, 10 μM), lipoxin B4 (LXB4, 10 μM), epi-lipoxin A4 (epi-LxA4, 10 μM), TGF-β (100 ng/ml), interleukin-10 (IL-10, 100 ng/ml) for 1 hour.
Emetine freezes ribosomes in the polysomal state and inhibits SG formation (Anderson and Kedersha, 2006). HeLa cells that were pretreated for 1 hour with 10 μg/ml of emetine and then treated with 15d-PGJ2 (50 μM) for 1 hour, and subjected to immunocytochemical analyses.
The amounts of 15d-PGJ2 required for SG formation were measured.

[2] = system: TRAF2; experiment: Sequestration of TNF-α signaling molecules into SGs in HeLa cells, immunocytochemistry; type: cell-based; settings: 50 μM, 1 hour; for Subcellular localization of TRAF2: FIG. 1E
Experimental: (b, f, and j), 50 μM of PGE2 (c, g, and k), or 15d-PGJ2 (d, h, and 1) for 1 hour. Immunocytochemistry was performed using eIF3b and TRAF2 antibodies, wherein arrows indicate SGs. Subcellular localizations of TRAF2 before (FIG. 1E, panels a, e and i) and after induction of SG formation by heat (FIG. 1E, panels b, f and j) or 15d-PGJ2 (FIG. 1E, panels d, h and l) were monitored by an immunocytochemical method. This was because the sequestration of TRAF2 into SGs induced by heat has previously been reported (Kim et al., 2005).
The inventors also investigated the localization of RIP, which directly interacts with TRAF2 and conveys TNF-α signal downstream of TRAF2 (Jackson-Bernitsas et al., 2007), and that of IKK α/β which conveys TNF-α signal downstream of RIP and is also known as a target of 15d-PGJ2 (Cheng and Baltimore, 1996). […] In FIG. 10A, HeLa cells were mock-treated (left panels) or treated with 50 μM of 15d-PGJ2 (right panels) for 1 hour. Immunocytochemical analyses were performed with the indicated antibodies: TRAF2 and eIF3b (upper panels), RIP and TRAF2 (middle panels), IKKα/β and TIA-1 (lower panels). Arrows indicate SGs.

[3] = system: HeLa cells; experiment: Ribosome (polysome) profiling with sucrose gradient in HeLa cells; type: cell-based; settings: SA 400 μM 30 minutes; 15d-PGJ2 or PGE2 50 μM 1 hour, FIG. 4C
Experimental: Experiments were performed as described elsewhere (Kedersha et al., 2000, which is hereby incorporated by reference for all purposes as if fully set forth herein) using a 0.5-1.5 M sucrose gradient.
It is well known that inhibition of translation and SG formation alters the polysome profile. HeLa cells were mock-treated or treated with SA (400 μM) for 30 minutes, 15d-PGJ2 (50 μM) for 1 hour, or PGE2 (50 μM) for 1 hour. A sucrose gradient experiment was performed as described above, and the obtained results are shown in FIG. 4C, wherein the lines show observance at 254 nm.

[4] = target: T1, eIF4GI-eIF4A interaction (Homo sapiens, UniProt P60842); experiment: eIF4GI-eIF4A co-immunoprecipitation from 293T cell lysates; type: biochemical; settings: 293T cell extract, 50 μM, 30° C., 1 hour, FIG. 7A
T1 construct: expressed in transfected cells; host or cells: 293T
T1 sequence (P60842 whole entry): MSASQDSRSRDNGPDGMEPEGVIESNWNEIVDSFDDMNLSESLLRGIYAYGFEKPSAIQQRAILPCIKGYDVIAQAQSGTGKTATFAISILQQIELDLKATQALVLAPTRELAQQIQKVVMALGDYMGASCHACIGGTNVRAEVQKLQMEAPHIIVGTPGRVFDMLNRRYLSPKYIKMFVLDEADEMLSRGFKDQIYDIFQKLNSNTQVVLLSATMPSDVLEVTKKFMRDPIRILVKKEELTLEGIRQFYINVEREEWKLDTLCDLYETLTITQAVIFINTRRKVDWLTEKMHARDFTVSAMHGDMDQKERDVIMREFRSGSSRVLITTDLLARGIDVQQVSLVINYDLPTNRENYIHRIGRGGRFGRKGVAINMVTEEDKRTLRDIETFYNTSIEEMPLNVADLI
T1 sequence (P23588 whole entry partner): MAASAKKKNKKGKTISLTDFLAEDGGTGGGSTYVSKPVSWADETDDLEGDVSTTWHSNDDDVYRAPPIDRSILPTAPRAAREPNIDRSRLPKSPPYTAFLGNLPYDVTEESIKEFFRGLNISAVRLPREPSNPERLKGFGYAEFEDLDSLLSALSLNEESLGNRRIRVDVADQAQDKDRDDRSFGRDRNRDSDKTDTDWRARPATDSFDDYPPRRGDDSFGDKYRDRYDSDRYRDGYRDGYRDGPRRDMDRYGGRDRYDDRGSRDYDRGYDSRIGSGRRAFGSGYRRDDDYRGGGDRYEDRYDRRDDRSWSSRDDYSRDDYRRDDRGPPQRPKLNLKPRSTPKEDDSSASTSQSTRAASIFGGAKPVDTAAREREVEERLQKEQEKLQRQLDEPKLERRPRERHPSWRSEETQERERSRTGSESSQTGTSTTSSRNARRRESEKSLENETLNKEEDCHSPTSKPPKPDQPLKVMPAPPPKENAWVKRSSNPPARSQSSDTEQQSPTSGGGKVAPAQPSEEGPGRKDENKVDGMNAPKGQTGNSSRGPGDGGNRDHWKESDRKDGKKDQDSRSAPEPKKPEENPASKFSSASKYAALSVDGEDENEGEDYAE
Experimental: 293T cells transfected with DNAs were lysed using the NP-40 lysis buffer. The lysates were clarified by centrifugation at 14,000 g for 15 minutes. Anti-FLAG monoclonal antibody (4 μg) was incubated with 20 μl of Protein G-agarose (GE Healthcare) for 1 hour in 1 ml NP-40 lysis buffer at 4° C. Lysates were pre-cleared with 10 μl of protein G-agarose at 4° C. for 30 minutes. After pre-clearing, cell lysates were treated with 50 μM of EtOH, PGE2, or 15d-PGJ2 at 30° C. for 1 hour, followed by centrifugation. Then protein G agarose-conjugated antibodies were incubated with the pre-cleared lysates at 4° C. for 1 hour. Precipitates were washed three times with lysis buffer and analyzed by SDS-PAGE.
The mechanism by which 15d-PGJ2 inhibits translation was investigated by monitoring the effects of 15d-PGJ2 on translational initiation complex formation as shown FIG. 7A. eIF4G is a scaffold protein that recruits eIF4E, eIF4A, eIF3, and PABP into the translational initiation complex. The effect of 15d-PGJ2 on the eIF4GI-eIF4A interaction was monitored by a co-immunoprecipitation assay. 293T cells were co-transfected with HA-eIF4B and FLAG-eIF4A1 (provided by Dr. Yongjun Dang and Dr. Jian Liu, Johns Hopkins). Cells were lysed then treated with 50 μM of PGE2 or 15d-PGJ2 at 30° C. for 1 hour. Immunoprecipitation was performed with an anti-FLAG antibody.

[5] = 30 minutes, TIA-1 antibody, FIG. 1A

For CCCCC/C=C/C=C1/C(=O)C=C[C@@H]1C/C=C\CCCC(=O)O [15d-PGJ2, 15-deoxy-delta 12,14-prostaglandin J2], the SG formation ([1]; 10 μM, 12-24 hours, FIG. 1D) was “SGs were formed”, the SG formation [1, 5] was “induced SG formation” and the “SG inducer strength compared” value ([1]; FIG. 1A panel b vs c) was “stronger SG inducer than PGA1”. For the same compound, the “Subcellular localization of TRAF2” value [2] was “migration of TRAF2 to SGs induced by 15d-PGJ2 was observed”, the “Sequestration of RIP and IKK α/β into SGs” value ([2]; FIG. 10A) was “Neither RIP nor IKK α/β was sequestered into SGs” and the “Polysome profile / ribosomal shift” value [3] was “Ribosomal shift to the subunit state was also observed”. The “Co-precipitation of eIF4GI with eIF4A1” value [4] was “eIF4GI was not co-precipitated with eIF4A1”.

With CCCCC[C@H](O)/C=C/[C@H]1[C@H](O)CC(=O)[C@@H]1C/C=C\CCCC(=O)O [PGE2, prostaglandin E2] the SG formation [1, 5] was “did not induce SG formation”, the “Subcellular localization of TRAF2” value [2] was “no change in the subcellular localization of TRAF2” and the “Polysome profile / ribosomal shift” value [3] was “did not induce a ribosomal shift”. The “Co-precipitation of eIF4GI with eIF4A1” value [4] was “eIF4GI was co-precipitated with eIF4A1”.
